# Laboratory results taken from ChEMBL document CHEMBL1201862, “PubChem BioAssay data set” (2004).
# Activity calls are given as the source filed them.
# What was measured:
# [1] = HEp-2 cell cytotoxicity, dose response, cytotoxicity control for RSV inhibitor project, HTS (AID 2410); type: functional; settings: human respiratory syncytial virus
# [2] = target: T1, Polyadenylate-binding protein 1 (Homo sapiens, UniProt P11940); experiment: PABP1 MLLE–PAM2 binding inhibitor potency, dose response, biochemical, fluorescence polarization, FITC-PAM2 peptide (AID 602259); type: functional; settings: read-out: IC50_Mean
# [3] = target: T1, Polyadenylate-binding protein 1; experiment: PABP1 MLLE–PAM2 interaction inhibitors, dose response, miRNA deadenylation inhibitor project, biochemical, fluorescence polarization, Cy5-PAM2 peptide, secondary (AID 602260); type: functional; settings: read-out: IC50_Mean
# [4] = target: T2, Tyrosine-protein phosphatase non-receptor type 7 (Homo sapiens, UniProt P35236); experiment: inhibitors of human HePTP phosphatase, […], biochemical, absorbance, leukemia target (AID 521); type: functional
# T2 sequence (P35236 whole entry): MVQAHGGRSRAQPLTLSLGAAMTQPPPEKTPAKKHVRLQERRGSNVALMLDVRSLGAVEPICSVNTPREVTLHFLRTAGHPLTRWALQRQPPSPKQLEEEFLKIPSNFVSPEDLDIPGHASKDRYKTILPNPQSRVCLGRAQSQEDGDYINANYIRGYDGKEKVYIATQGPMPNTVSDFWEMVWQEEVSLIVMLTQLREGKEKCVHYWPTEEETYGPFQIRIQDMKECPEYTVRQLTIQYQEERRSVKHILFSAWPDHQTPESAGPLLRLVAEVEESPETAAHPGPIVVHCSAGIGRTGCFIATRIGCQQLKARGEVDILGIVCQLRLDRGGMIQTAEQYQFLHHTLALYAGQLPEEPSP
# [5] = A Cell Based Secondary Assay To Explore Cytotoxicity of Compounds that Sensitize Mycobacterium Tuberculosis to Beta-Lactam Antibiotics.; type: functional
# Bcl-2-related protein A1 [6] = target: T3, Bcl-2-related protein A1 (Mus musculus, UniProt Q07440); experiment: Bfl-1 inhibitors blocking BH3 peptide binding, confirmation, biochemical, TR-FRET, mouse Bfl-1 (AID 621);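 also: TR-FRET binding of GST-Bfl-1 to FITC-labelled Bid peptide via terbium antibody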
# T3 sequence (Q07440 whole entry): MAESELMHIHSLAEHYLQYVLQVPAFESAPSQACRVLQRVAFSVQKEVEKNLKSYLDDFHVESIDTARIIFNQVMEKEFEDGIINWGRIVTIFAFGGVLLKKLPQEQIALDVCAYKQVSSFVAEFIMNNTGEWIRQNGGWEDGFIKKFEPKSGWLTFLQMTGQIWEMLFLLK
# Bcl-2-related protein A1 [7] = target: T3, Bcl-2-related protein A1; experiment: Bfl-1 binding inhibitors, SAR follow-up, biochemical, fluorescence polarization (AID 1070)
# [8] = target: Glyceraldehyde-3-phosphate dehydrogenase (Homo sapiens, UniProt P04406)
# Ephrin type-A receptor 4 = Ephrin type-A receptor 4 (Mus musculus, UniProt Q03137); experiment: inhibitors of EphA4 binding to KYL peptide, primary screen, biochemical, colorimetric, mouse EphA4 (AID 689); type: functional
# Chain of Ephrin type-A receptor 4 (Q03137 whole entry): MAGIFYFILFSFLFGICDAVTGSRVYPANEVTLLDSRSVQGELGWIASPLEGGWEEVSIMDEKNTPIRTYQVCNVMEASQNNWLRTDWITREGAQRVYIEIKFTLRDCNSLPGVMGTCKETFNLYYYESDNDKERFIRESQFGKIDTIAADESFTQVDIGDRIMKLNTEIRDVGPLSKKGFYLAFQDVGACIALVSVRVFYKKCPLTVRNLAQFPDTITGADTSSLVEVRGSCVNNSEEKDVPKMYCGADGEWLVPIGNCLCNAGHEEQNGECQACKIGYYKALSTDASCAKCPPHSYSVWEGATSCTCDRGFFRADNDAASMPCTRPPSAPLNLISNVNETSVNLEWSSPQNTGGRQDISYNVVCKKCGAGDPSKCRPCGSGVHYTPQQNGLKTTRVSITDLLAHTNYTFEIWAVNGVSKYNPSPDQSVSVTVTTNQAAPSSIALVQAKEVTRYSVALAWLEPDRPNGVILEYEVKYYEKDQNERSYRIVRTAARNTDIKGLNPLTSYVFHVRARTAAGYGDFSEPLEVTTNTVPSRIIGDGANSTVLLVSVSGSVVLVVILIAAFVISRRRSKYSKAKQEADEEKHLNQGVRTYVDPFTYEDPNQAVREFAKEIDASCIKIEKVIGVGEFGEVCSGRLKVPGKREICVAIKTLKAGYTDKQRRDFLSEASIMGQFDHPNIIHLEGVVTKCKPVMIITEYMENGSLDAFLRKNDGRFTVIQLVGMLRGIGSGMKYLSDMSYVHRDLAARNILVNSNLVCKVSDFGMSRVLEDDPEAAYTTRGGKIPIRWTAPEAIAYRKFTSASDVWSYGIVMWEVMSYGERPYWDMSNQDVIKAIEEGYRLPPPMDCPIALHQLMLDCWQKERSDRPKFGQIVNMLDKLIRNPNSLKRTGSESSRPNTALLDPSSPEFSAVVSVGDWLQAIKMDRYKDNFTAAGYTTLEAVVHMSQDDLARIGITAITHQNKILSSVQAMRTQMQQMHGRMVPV
# T1 sequence (P11940 whole entry): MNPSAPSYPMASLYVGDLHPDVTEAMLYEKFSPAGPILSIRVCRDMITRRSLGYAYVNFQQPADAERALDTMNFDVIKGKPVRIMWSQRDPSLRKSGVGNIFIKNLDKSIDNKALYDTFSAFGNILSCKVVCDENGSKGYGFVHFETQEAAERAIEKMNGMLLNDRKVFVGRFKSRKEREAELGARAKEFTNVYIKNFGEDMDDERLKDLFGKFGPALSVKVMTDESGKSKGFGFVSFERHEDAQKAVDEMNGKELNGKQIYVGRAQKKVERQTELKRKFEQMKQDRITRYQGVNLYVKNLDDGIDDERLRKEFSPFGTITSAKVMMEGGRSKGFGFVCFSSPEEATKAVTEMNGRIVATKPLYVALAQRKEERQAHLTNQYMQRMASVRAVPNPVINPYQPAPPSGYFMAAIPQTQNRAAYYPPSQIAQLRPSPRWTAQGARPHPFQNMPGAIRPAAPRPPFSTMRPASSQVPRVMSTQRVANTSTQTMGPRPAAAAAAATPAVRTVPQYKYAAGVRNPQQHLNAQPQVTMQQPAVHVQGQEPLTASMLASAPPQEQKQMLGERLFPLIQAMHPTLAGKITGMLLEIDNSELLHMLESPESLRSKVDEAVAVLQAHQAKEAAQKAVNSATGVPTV
# Chain of Glyceraldehyde-3-phosphate dehydrogenase (P04406 whole entry): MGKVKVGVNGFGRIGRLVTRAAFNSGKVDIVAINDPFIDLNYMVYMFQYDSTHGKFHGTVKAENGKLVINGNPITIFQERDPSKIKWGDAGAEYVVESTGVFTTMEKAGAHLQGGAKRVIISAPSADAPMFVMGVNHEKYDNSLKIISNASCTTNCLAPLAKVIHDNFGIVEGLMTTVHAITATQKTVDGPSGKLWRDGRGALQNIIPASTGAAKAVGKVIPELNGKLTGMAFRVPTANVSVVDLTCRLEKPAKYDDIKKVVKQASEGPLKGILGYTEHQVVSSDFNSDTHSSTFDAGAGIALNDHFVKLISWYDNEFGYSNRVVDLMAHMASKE
smiles,measurement,setting,value
Cc1ccc(C(=O)O)cc1NC(=S)NC(=O)c1ccc(-c2ccc(Cl)cc2)o1,IC50,cells,22.8 µM (active)
same,CC50,[1],23.2 µM (active)
same,IC50,[2],> 66 µM (inactive)
same,IC50,[3],> 66 µM (inactive)
COc1ccc(NC(=O)C2CCCN(S(=O)(=O)c3cccnc3)C2)cc1 (configuration not stated),IC50,[4],> 100 µM (not active)
COc1ccc(OC)c(Nc2nc(-c3cccs3)cs2)c1,CC50,[5],> 40 µM (active)
same,CC50,[1],26.5 µM (active)
Cc1ccc(Cl)cc1N1CCN(C2=C(Cl)C(=O)N(c3ccc(Cl)c(Cl)c3)C2=O)CC1,IC50,Bcl-2-related protein A1 [6],> 100 µM (not active)
same,IC50,Bcl-2-related protein A1 [7],> 100 µM (not active)
same,IC50,[8],> 100 µM (not active)
O=C(c1ccc2c(=O)n(Cc3ccc4c(c3)OCO4)c(=S)[nH]c2c1)N1CCCCC1,IC50,Ephrin type-A receptor 4,> 100 µM (not active)
COc1ccc(Cn2c(=O)[nH]c3cc(C(=O)N4CCN(c5ccccc5F)CC4)ccc3c2=O)cc1,CC50,[5],> 40 µM (active)
